Assay results taken from the supplement of paper PMC10307832.

What was measured:
Test in all cases: relative viability (nuclei count vs DMSO), 5 days (fraction); higher = more cells survive
[1] = compound: CC1=CC=C(C=C1)C(=O)CN2C3=C(CCCC3)SC2=N [Pifithrin_alpha] + C[C@]1(O)C[C@@H](c2nc(-c3ccc4ccc(-c5ccccc5)nc4c3)c3c(N)nccn32)C1 [Linsitinib] (partner 1 µM)
Procedure, shortened: (§1)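 Cells from lung cancer lines were seeded into 1536-well plates and, one day later, dosed by pin tool. Treatments were either a single drug or a fixed dose of an anchor drug with five library-drug doses (not always all listed) in √10 steps. After 5 days, nuclei were stained in a one-step fixation (final 0.05% Triton X-100, 1% formaldehyde, 1 ug/ml Hoechst) and counted on 4× images, and relative viability is the treated-to-vehicle nuclei ratio, as the median of duplicate plates.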

Bemcentinib + Crizotinib = compound: Nc1nc(Nc2ccc3c(c2)CC[C@@H](N2CCCC2)CC3)nn1-c1cc2c(nn1)-c1ccccc1CCC2 [Bemcentinib] + C[C@@H](Oc1cc(-c2cnn(C3CCNCC3)c2)cnc1N)c1c(Cl)ccc(F)c1Cl [Crizotinib] (partner 1 µM)
Procedure, shortened: as §1

Bemcentinib + Foretinib = compound: Nc1nc(Nc2ccc3c(c2)CC[C@@H](N2CCCC2)CC3)nn1-c1cc2c(nn1)-c1ccccc1CCC2 [Bemcentinib] + COc1cc2c(Oc3ccc(NC(=O)C4(C(=O)Nc5ccc(F)cc5)CC4)cc3F)ccnc2cc1OCCCN1CCOCC1 [Foretinib] (partner 0.25 µM)
Procedure, shortened: as §1

Bemcentinib + Pemetrexed = compound: Nc1nc(Nc2ccc3c(c2)CC[C@@H](N2CCCC2)CC3)nn1-c1cc2c(nn1)-c1ccccc1CCC2 [Bemcentinib] + Nc1nc2[nH]cc(CCc3ccc(C(=O)N[C@@H](CCC(=O)O)C(=O)O)cc3)c2c(=O)[nH]1 [Pemetrexed] (partner 0.2 µM)
Procedure, shortened: as §1

NCI-H650
relative viability ([1]; first compound 3.162 µM): 1 | relative viability ([1]; first compound 10 µM): 0.778 | relative viability ([1]; first compound 31.62 µM): 0.524 | relative viability ([1]; first compound 100 µM): 0.807 | relative viability (Bemcentinib + Crizotinib; first compound 0.04 µM): 0.721 | relative viability (Bemcentinib + Crizotinib; first compound 0.1265 µM): 0.785 | relative viability (Bemcentinib + Crizotinib; first compound 0.4 µM): 0.679 | relative viability (Bemcentinib + Crizotinib; first compound 1.265 µM): 0.703 | relative viability (Bemcentinib + Crizotinib; first compound 4 µM): 0.618 | relative viability (Bemcentinib + Foretinib; first compound 0.04 µM): 0.975 | relative viability (Bemcentinib + Foretinib; first compound 0.1265 µM): 1.16 | relative viability (Bemcentinib + Foretinib; first compound 0.4 µM): 1.04 | relative viability (Bemcentinib + Foretinib; first compound 1.265 µM): 1.02 | relative viability (Bemcentinib + Foretinib; first compound 4 µM): 1.05 | relative viability (Bemcentinib + Pemetrexed; first compound 0.04 µM): 0.843 | relative viability (Bemcentinib + Pemetrexed; first compound 0.1265 µM): 1.06 | relative viability (Bemcentinib + Pemetrexed; first compound 0.4 µM): 1.09 | relative viability (Bemcentinib + Pemetrexed; first compound 1.265 µM): 0.941 | relative viability (Bemcentinib + Pemetrexed; first compound 4 µM): 1.01
